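Results reflect a 48-hour exposure of cells in 96-well plates to compound at five concentrations. At the GI50, growth is halved.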 Active and inactive are the calls of the source. Cut-off read from the data, not from the text of the source: active = GI50 up to about 1.1 µM and inactive = higher.
Tests used:
Assay in all cases: NCI tumour cell line growth inhibition, 48 h
T47D = tested on: T47D
M14 = tested on: M14
SF-268 = tested on: SF-268
RXF 393 = tested on: RXF 393
NCI/ADR-RES = tested on: NCI/ADR-RES
HCT-116 = tested on: HCT-116
OVCAR-3 = tested on: OVCAR-3
SK-MEL-28 = tested on: SK-MEL-28
SW-620 = tested on: SW-620
HL-60 = tested on: HL-60
NCI-H522 = tested on: NCI-H522
Hs-578T = tested on: Hs-578T
OVCAR-8 = tested on: OVCAR-8
HOP-62 = tested on: HOP-62
SN12C = tested on: SN12C
MDA-MB-435 = tested on: MDA-MB-435
K562 = tested on: K562
Malme-3M = tested on: Malme-3M
HOP-92 = tested on: HOP-92
HCC 2998 = tested on: HCC 2998

Row | SMILES | GI50 (T47D) | GI50 (M14) | GI50 (SF-268) | GI50 (RXF 393) | GI50 (NCI/ADR-RES) | GI50 (HCT-116) | GI50 (OVCAR-3) | GI50 (SK-MEL-28) | GI50 (SW-620) | GI50 (HL-60) | GI50 (NCI-H522) | GI50 (Hs-578T) | GI50 (OVCAR-8) | GI50 (HOP-62) | GI50 (SN12C) | GI50 (MDA-MB-435) | GI50 (K562) | GI50 (Malme-3M) | GI50 (HOP-92) | GI50 (HCC 2998)
1 | COc1nc(C#CC2(O)CCCCC2)nc(OC)n1 | 30.5 µM (inactive) | 8.65 µM (inactive) | 14.3 µM (inactive) | 12.9 µM (inactive) | 23.6 µM (inactive) | 9.4 µM (inactive) | 8.15 µM (inactive) | 13.9 µM (inactive) | 8.91 µM (inactive) | 2.64 µM (inactive) | 10 µM (inactive) | 11.5 µM (inactive) | 13 µM (inactive) | 34.2 µM (inactive) | 12.4 µM (inactive) | 5.82 µM (inactive) | 6.49 µM (inactive) | 3.1 µM (inactive) |  | 
2 | Cc1ccc2nc3c(C)c(Cl)c(=O)cc-3sc2c1 | 58.1 µM (inactive) | 15.2 µM (inactive) | 26.8 µM (inactive) | 22.9 µM (inactive) |  | 17.8 µM (inactive) | 6.97 µM (inactive) | 32.7 µM (inactive) | 28.6 µM (inactive) | 2.59 µM (inactive) | 11.1 µM (inactive) | 21.7 µM (inactive) | 11.2 µM (inactive) | 27.5 µM (inactive) | 26.6 µM (inactive) | 18.5 µM (inactive) | 3.65 µM (inactive) | > 45.7 µM (inactive) | 34.4 µM (inactive) | 40.3 µM (inactive)
3 | CCCCCCCCCCC[N+]1(Cc2ccccc2)CC2CCN(Cc3ccccc3)CC2C1 (configuration not stated) | 0.166 µM (active) | 0.383 µM (active) | 0.555 µM (active) | 0.587 µM (active) | 5.09 µM (inactive) | 0.284 µM (active) | 0.371 µM (active) | 0.665 µM (active) | 0.381 µM (active) | 0.106 µM (active) | 0.106 µM (active) | 0.354 µM (active) | 0.422 µM (active) | 0.818 µM (active) | 0.327 µM (active) |  | 0.125 µM (active) | 0.342 µM (active) | 0.451 µM (active) | 0.649 µM (active)
4 | Cc1cn(C2CC(OC(c3ccccc3)(c3ccccc3)c3ccccc3)C(COC(c3ccccc3)(c3ccccc3)c3ccccc3)O2)c(=O)[nH]c1=O (configuration not stated) |  | > 100 µM (inactive) | 99.8 µM (inactive) | 30 µM (inactive) | > 100 µM (inactive) | 17.1 µM (inactive) | > 100 µM (inactive) | 36.8 µM (inactive) | 90.4 µM (inactive) | 53.1 µM (inactive) |  | 38.1 µM (inactive) | > 100 µM (inactive) | > 100 µM (inactive) | 53.6 µM (inactive) | 26.2 µM (inactive) | 38.6 µM (inactive) | 68.7 µM (inactive) | 21.1 µM (inactive) | > 100 µM (inactive)
5 | C=C1C(OC2O[C@@H]3O[C@@]4(C)CC[C@H]5[C@H](C)CC[C@@H](C2=C)[C@@]35O4)O[C@@H]2O[C@@]3(C)CC[C@H]4[C@H](C)CC[C@@H]1[C@@]24O3 (some centres not stated) | > 50 µM (inactive) | > 50 µM (inactive) | > 50 µM (inactive) | > 50 µM (inactive) |  | > 50 µM (inactive) | > 50 µM (inactive) | > 50 µM (inactive) | > 50 µM (inactive) | > 50 µM (inactive) | > 50 µM (inactive) | > 50 µM (inactive) |  | > 50 µM (inactive) | > 50 µM (inactive) | > 50 µM (inactive) | > 50 µM (inactive) | > 50 µM (inactive) | > 50 µM (inactive) | > 50 µM (inactive)
6 | Cc1ccc2c(ccc(/C=C/c3ccc(O)c4ncccc34)[n+]2C)c1 |  | 13.6 µM (inactive) | 2.94 µM (inactive) | 16.3 µM (inactive) | > 49.5 µM (inactive) | 3.87 µM (inactive) | 0.817 µM (active) | 10.3 µM (inactive) | 4.65 µM (inactive) | 19.5 µM (inactive) | 3.64 µM (inactive) | > 100 µM (inactive) | 2.38 µM (inactive) | 6.85 µM (inactive) | 12.1 µM (inactive) | > 30.4 µM (inactive) | 3.11 µM (inactive) | 11.1 µM (inactive) | 14.7 µM (inactive) | 3.56 µM (inactive)
7 | S=C(Nc1cccc(Cl)c1)Nc1ccccn1 | > 100 µM (inactive) | > 100 µM (inactive) | > 100 µM (inactive) | > 100 µM (inactive) | > 100 µM (inactive) | > 100 µM (inactive) | > 100 µM (inactive) | > 100 µM (inactive) | > 100 µM (inactive) | > 100 µM (inactive) |  | > 100 µM (inactive) | > 100 µM (inactive) | > 100 µM (inactive) | > 100 µM (inactive) | > 100 µM (inactive) | > 100 µM (inactive) | 27.6 µM (inactive) |  | 
8 | O=C1O[B-](c2ccccc2)(c2ccccc2)[NH+]2CCCC12 (configuration not stated) | 76.9 µM (inactive) | 40.5 µM (inactive) | > 100 µM (inactive) | 43.5 µM (inactive) | 84.7 µM (inactive) | 47 µM (inactive) | 38.7 µM (inactive) | 99.5 µM (inactive) | 63.4 µM (inactive) | > 100 µM (inactive) | 64.7 µM (inactive) | 56.6 µM (inactive) | 74 µM (inactive) | > 100 µM (inactive) | > 100 µM (inactive) | > 100 µM (inactive) | 67.6 µM (inactive) | 51.1 µM (inactive) | 16.7 µM (inactive) | 
9 | CC1(C)CCCCCCCCCC2CC2CCC(C)(C)C1=O (configuration not stated) | 18.9 µM (inactive) | 18.8 µM (inactive) | 22.4 µM (inactive) | 15.4 µM (inactive) | 21 µM (inactive) | 16.6 µM (inactive) | 12.7 µM (inactive) | 25.9 µM (inactive) | 35.9 µM (inactive) | 22 µM (inactive) | 15.6 µM (inactive) | 31.3 µM (inactive) | 30.2 µM (inactive) | 21.8 µM (inactive) | 18.4 µM (inactive) | 23 µM (inactive) | 15.6 µM (inactive) | 21 µM (inactive) | 26.3 µM (inactive) | 
10 | CCn1c2c(c3ccccc3c1=O)C(=O)c1ccccc1-2 | > 100 µM (inactive) | > 100 µM (inactive) | > 100 µM (inactive) |  | > 100 µM (inactive) | > 100 µM (inactive) | > 100 µM (inactive) | > 100 µM (inactive) | > 100 µM (inactive) | > 100 µM (inactive) | > 100 µM (inactive) | 74.5 µM (inactive) | > 100 µM (inactive) | > 100 µM (inactive) | > 100 µM (inactive) | > 100 µM (inactive) | > 100 µM (inactive) | > 100 µM (inactive) | > 100 µM (inactive) | 
11 | N#Cc1c(O)cc(=O)n2c1[nH]c1ccccc12 |  | > 100 µM (inactive) | > 100 µM (inactive) | > 100 µM (inactive) | > 100 µM (inactive) | > 100 µM (inactive) | > 100 µM (inactive) |  | > 100 µM (inactive) | > 100 µM (inactive) | > 100 µM (inactive) | > 100 µM (inactive) | > 100 µM (inactive) | > 100 µM (inactive) | > 100 µM (inactive) | > 100 µM (inactive) | > 100 µM (inactive) | > 100 µM (inactive) | > 100 µM (inactive) | > 100 µM (inactive)
